Data reported in patent US20230257419A1, “PHARMACEUTICAL COMPOSITION FOR PREVENTING OR TREATING A PERIODONTAL DISEASE OR DISLOCATED TRAUMATIC TOOTH” (HYSENSBIO, priority 2020, published 2023).

How the values were obtained:
CAP gene = assay: CAP mRNA expression by real-time PCR in human periodontal ligament cells; type: cell-based; conditions: average of three experiments
Method: (§1) Specifically, all experiments were performed with the consent of the patient after obtaining approval from the Hospital's Institutional Review Board, a periodontal ligament tissue attached to the root of a wisdom tooth was isolated and cut into double-sided pieces, placed in a 60 mm dish, and covered with a cover slip, and then cultured in Dulbecco's degenerated Eagle's Medium.
(§2) Total RNA from human periodontal ligament cells was isolated using a TRIzol reagent. cDNA was synthesized using 2 μg of total RNA, 1 μl of reverse transcriptase, and 0.5 μg of oligo (dT). cDNA of synthesized human periodontal ligament cells was used for a real-time polymerase chain reaction using primers shown in Table 2 below. A real-time polymerase chain reaction was performed in ABI PRISM 7500 sequence detection system (Applied Biosystems) using SYBR GREEN PCR Master Mix (Takara, Japan). The real-time polymerase chain reaction was performed at 94° C., 1 min; 95° C., 15 sec-60° C., 34 sec was performed under the condition of repeating 40 cycles. Results were analyzed using a comparative cycle threshold (CT) method.

BSP gene = assay: BSP mRNA expression by real-time PCR in human periodontal ligament cells; type: cell-based; conditions: average of three experiments
Method: as §1, §2

periostin gene = assay: Periostin mRNA expression by real-time PCR in human periodontal ligament cells; type: cell-based; conditions: average of three experiments
Method: as §1, §2

[1] = test system: three-wall periodontal defect; assay: Periodontium regeneration in periodontium damage animal model, histological evaluation; type: in vivo; conditions: beagle dog, collagen sponge containing 50 μg peptide, 3 months
Method: Four beagle dogs (12-16 kg; […]) were anesthetized by inhalation of Geloran, intravenously injected with Zoletil (5 mg/kg) and Xylazine (0.2-0.5 mg/kg), and then treated with Lidocaine (Lidocaine 2% with 1:80,000 epinephrine). The 4th premolar tooth and the 2nd molar tooth were extracted from the mandible of the beagle dog, and then the dog waited for healing for 3 months. After 3 months of healing, three-wall periodontal defect was induced on distal and mesial surfaces of a 1st molar tooth. Then, a periodontal damage of 4×4×4 mm was formed with the buccal and distal bones remaining around the tooth root, the root alveolar bone is securely removed, tooth root planing was performed using a curette, and then an incisor groove was formed using a ½ round bur. Next, an experimental group was transplanted with a collagen sponge (a peptide solution obtained by dissolving a peptide in physiological saline at a concentration of 1 μg/μl was prepared, 50 μl of a peptide solution was added to the EP tube, and then was soaked for 5 minutes to prepare the collagen sponge) including a 50 μl of peptide (SEQ ID NO: 16 of group 2) prepared in Example 1 at a defect region, After the defect, only a negative control (NC) without any treatment and a collagen sponge (prepared by soaking a collagen sponge in 50 μl of physiological saline for 5 minutes) was placed on the inner bone wall of a bone defect and a transplanted negative control (NC+Plug) was sacrificed 3 months later, and histological evaluation was performed. After 3 months, a beagle dog was sacrificed by administering an excessive amount (90-120 mg/kg) of pentobarbital. A tooth of the beagle dog was extracted, fixed with 10% formalin, and then calcium was removed by adding 5% formic acid, molded, and embedded in paraffin, to obtain a tissue section with a thickness of 5 μm. The obtained tissue section was stained with hematoxylin and eosin or collagen stained (Masson's Trichrome Staining) to confirm periodontal ligament regeneration and then analyzed using by an optical microscope equipped with a digital camera (LEICA ICC50 camera, Germany). After extraction of a 4th premolar tooth and a 2nd molar tooth from the mandibles of 4 beagle dogs, they waited for 3 months to heal, and After 3 months of healing, the 3-mural periodontal defect was induced in distal and mesial surfaces of a 1st molar tooth. Then, periodontium damage of 4×4×4 mm was formed with the buccal and distal bones remaining around the tooth root, the root alveolar bone is securely removed, tooth root planing was performed using a curette, and then an incisor groove was formed. Next, the experimental group transplanted a collagen sponge containing 50 μg of the peptide (SEQ ID NO: 16) of Example 1 to the defect region, and after the defect, a negative control (NC) without any treatment and control (NC+Plug) transplanted by placing only a collagen sponge on the inner bone wall of the bone defect was sacrificed 3 months later for histological evaluation.

[2] = Masson's trichrome stain, FIG. 6

| Substance | CAP gene expression, relative mRNA expression level compared to the control, Average (CAP gene) | BSP gene expression, relative mRNA expression level compared to the control, Average (BSP gene) | PERIOSTIN gene expression, relative mRNA expression level compared to the control, Average (periostin gene) | incorporation of new periodontal ligament fiber bundle into alveolar bone and cementum [1, 2] | new cementum-like tissue formation [1, 2] | new periodontal ligament-like tissue formation [1, 2] | incorporation of new periodontal ligament into alveolar bone and cementum ([1]; hematoxylin/eosin, FIG. 5) | new cementum-like tissue formation ([1]; hematoxylin/eosin, FIG. 5) | new periodontal ligament-like tissue formation ([1]; hematoxylin/eosin, FIG. 5) |
| --- | --- | --- | --- | --- | --- | --- | --- | --- | --- |
| 1 (KYKQRKKNYK) [compound 1] | 2.092 | 2.092 | 2.092 |  |  |  |  |  |  |
| 2 (KYKQRKRNYK) [compound 2] | 2.361 | 2.361 | 2.361 |  |  |  |  |  |  |
| 3 (KYKQRRKNYK) [compound 3] | 2.572 | 2.572 | 2.572 |  |  |  |  |  |  |
| 4 (KYKQRRRNYK) [compound 4] | 2.702 | 2.702 | 2.702 |  |  |  |  |  |  |
| 5 (KYKQKKKNYK) [compound 5] | 2.67 | 2.67 | 2.67 |  |  |  |  |  |  |
| 6 (KYKQKRKNYK) [compound 6] | 2.705 | 2.705 | 2.705 |  |  |  |  |  |  |
| 7 (KYKQKKRNYK) [compound 7] | 2.451 | 2.215 | 2.329 |  |  |  |  |  |  |
| 8 (KYKQKRRNYK) [compound 8] | 2.021 | 2.021 | 2.021 |  |  |  |  |  |  |
| 9 (KYKQRKKSYK) [compound 9] | 2.211 | 2.211 | 2.211 |  |  |  |  |  |  |
| 10 (KYKQRKRSYK) [compound 10] | 2.811 | 2.811 | 2.811 |  |  |  |  |  |  |
| 11 (KYKQRRKSYK) [compound 11] | 2.362 | 2.362 | 2.362 |  |  |  |  |  |  |
| 12 (KYKQRRRSYK) [compound 12] | 2.211 | 2.211 | 2.211 |  |  |  |  |  |  |
| 13 (KYKQKKKSYK) [compound 13] | 2.525 | 2.525 | 2.525 |  |  |  |  |  |  |
| 14 (KYKQKRKSYK) [compound 14] | 2.836 | 2.836 | 2.836 |  |  |  |  |  |  |
| 15 (KYKQKKRSYK) [compound 15] | 2.620 | 2.620 | 2.620 |  |  |  |  |  |  |
| 16 (KYKQKRRSYK) [compound 16] | 2.467 | 2.606 | 2.403 |  |  |  |  |  |  |
| KYKQKRRSYK [SEQ ID NO: 16, Group 2 peptide, 8th amino acid is serine (S)] |  |  |  | A new periodontal ligament fiber bundle was vertically incorporated in the newly formed alveolar bone and cementum | new cementum-like tissue was observed along a tooth root surface | new periodontal ligament-like tissue formation was also observed | New periodontal ligament was incorporated in the newly formed alveolar bone and cementum | new cementum-like tissue was observed along a tooth root surface | new periodontal ligament-like tissue formation was also observed |
